For data set [1], the target named is T1, BRDT-BD2 (Homo sapiens (Human), UniProt Q58F21). Nature of the data set: AlphaScreen bromodomain proximity assay (competition with biotinylated (+)-JQ1), BRDT-BD2. It counts as binding. (Alpha assays give light when donor and acceptor beads are brought close together.)
The target in a further data set is BRDT-BD1 (Homo sapiens (Human), UniProt Q58F21). In words: AlphaScreen bromodomain proximity assay (competition with biotinylated (+)-JQ1), BRDT-BD1. In kind it is binding. Particulars: NE: no effect at 10 μM.
The next data set has as its target His-BRDT-BD2 (Homo sapiens (Human), UniProt Q58F21). As to conditions: 0 = theoretically present in the library but not detected in the sequencing data.
In the next data set the test system is BD2. As to conditions: cited from earlier work.
Data set [2] can be described thus: Metabolic stability assay in human liver microsomes. In kind it is in vitro ADME. Particulars: for human microsomal stability: in words; for half-life at 2 μM: read-out: HLM t1/2. The procedure: (§1) Compounds 3-10, 15, 17, and 20-22 (2.0 μM) were incubated in the mouse or human liver microsomes (0.5 mg protein/mL) at 37° C. […] The reaction mixtures were centrifuged at rcf 15,000 for 15 min. […] The column temperature was maintained at 40° C. […] Q Exactive MS was operated in positive or negative mode with electrospray ionization.
(In general: Microsomes from liver hold many membrane-bound enzymes, among them those of drug oxidation.)

A further data set addresses BRD4-BD2 (Homo sapiens (Human), UniProt O60885). As to conditions: cited from earlier work.
A short description of data set [3]: Metabolic stability assay in mouse liver microsomes. It counts as in vitro ADME. As to conditions: for mouse microsomal stability: in words; for half-life at 2 μM: 0.5 mg protein/mL, 37° C., read-out: MLM t1/2. The procedure: as §1
The next data set deals with mice. As to conditions: cited from earlier work.
The conditions of data set [4]: mouse, in vivo; cited from earlier work.
Data set [5] concerns the target T1, BRDT-BD2. As to conditions: BromoKdELECT dose-response.
Description: (§2) Binding constants (Kds) were calculated with a standard dose-response curve using the Hill equation:
1+(KdHill Slope/DoseHill Slope)
The Hill Slope was set to −1.
(§3) Curves were fitted using a non-linear least square fit with the Levenberg-Marquardt algorithm.
The next data set has as its system bromodomains. As to conditions: BROMOscan competition binding.
[6] abbreviates: data >60 min is an extrapolated estimate.
The mark [7] stands for this setting: 2.0 μM, 0.5 mg protein/mL, 37° C.

One may read the IC50 as the point on the concentration scale where inhibition reaches its midpoint.

Bounds are passed on as bounds.

Description for bromodomains: as §2
1+(KdHill Slope/DoseHill Slope)
The Hill Slope was set to −1.
as §3

On to `CNC(=O)c1ccc(C(=O)Nc2cc(NC(=O)c3ccc4c(c3)c(-c3cc5ccccc5n3C)nn4C)ccc2C)cc1` [compound 8, N^1-Methyl-N^4-(2-methyl-5-(1-methyl-3-(1-methyl-1H-indol-2-yl)-1H-indazole-5-carboxamido)phenyl)terephthalamide], for which the 50% inhibitory concentration (IC50) at BRDT-BD2 [1] was 13 nM; at BRDT-BD1, over 10000 nM. Also, the “Count (observed molecule count in the DEC-Tec screen against BRDT-BD2)” value (“Count” below) at His-BRDT-BD2 turned out to be 846.

With `CC(=O)Nc1c(F)cc(C(=O)N[C@H]2CC[C@H](O)CC2)cc1O[C@@H](C)c1ccccc1` [GSK046], the “selectivity for BD2 over BD1” value with BD2 was over 300 fold.

In the case of `CNC(=O)c1ccc(C(=O)Nc2cc(NC(=O)c3ccc4c(c3)c(-c3ccncc3)nn4C)ccc2C)cc1` [compound 12, N^1-Methyl-N^4-(2-methyl-5-(1-methyl-3-(pyridin-4-yl)-1H-indazole-5-carboxamido)phenyl)terephthalamide], the concentration for half-maximal inhibition (IC50) was 978 nM on BRDT-BD2 [1] and over 10000 nM on BRDT-BD1. Further, at His-BRDT-BD2, the “Count” value came to 0.

For the compound `CNC(=O)c1ccc(C(=O)Nc2cc(NC(=O)c3ccc4c(c3)c(-c3ccc(N)cc3C)nn4C)ccc2C)cc1` [compound 9, N^1-(5-(3-(4-Amino-2-methylphenyl)-1-methyl-1H-indazole-5-carboxamido)-2-methylphenyl)-N^4-methylterephthalamide], the human microsomal stability entry in data set [2] is listed as “high metabolic stability”.

For `CCNC(=O)c1cc2c(-c3cc(C(C)(C)O)ccc3Oc3c(C)cc(F)cc3C)cn(C)c(=O)c2[nH]1` [ABBV-744], the “selectivity for BRD4-BD2” value on BRD4-BD2 is on record as 95-290 fold.

Take `CNC(=O)c1ccc(C(=O)Nc2cc(NC(=O)c3ccc4c(c3)c(-c3ccc(N)nc3)nn4C)ccc2C)cc1` [compound 10, N^1-(5-(3-(6-Aminopyridin-3-yl)-1-methyl-1H-indazole-5-carboxamido)-2-methylphenyl)-N^4-methylterephthalamide]: the mouse microsomal stability result in data set [3] is given as “high metabolic stability”. In addition, the IC50 was 17 nM on BRDT-BD2 [1] and over 10000 nM at BRDT-BD1. Moreover, the human microsomal stability entry in data set [2] is “high metabolic stability”. On His-BRDT-BD2, the “Count” value turned out to be 3.

With `CC(=O)Nc1cccc(NC(=O)c2ccc3c(c2)c(-c2ccc(N)cc2C)nn3C)c1` [compound 21, N-(3-Acetamidophenyl)-3-(4-amino-2-methylphenyl)-1-methyl-1H-indazole-5-carboxamide], the mouse microsomal stability entry in [3] was “high mouse microsomal stability”. In addition, the IC50 on BRDT-BD2 [1] is 14 nM; on BRDT-BD1 it was over 10000 nM.

Take `CNC(=O)c1ccc(C(=O)Nc2cc(NC(=O)c3ccc4c(c3)c(-c3ccc(N)cc3)nn4C)ccc2OC)cc1` [compound 7, N^1-(5-(3-(4-Aminophenyl)-1-methyl-1H-indazole-5-carboxamido)-2-methoxyphenyl)-N^4-methylterephthalamide]: the half-life at 2 μM is 51 min in data set [3] and 250 min in [2] (setting [6]). For the same compound, the half-inhibitory concentration (IC50) on BRDT-BD2 [1] is 15 nM; on BRDT-BD1, over 10000 nM. Further, at His-BRDT-BD2, the “Count” value came to 63.

`Cc1sc2c(c1C)C(c1ccc(Cl)cc1)=N[C@@H](CC(=O)OC(C)(C)C)c1nnc(C)n1-2` [(+)-JQ1, tert-butyl (S)-2-(4-(4-chlorophenyl)-2,3,9-trimethyl-6H-thieno[3,2-f][1,2,4]triazolo[4,3-a][1,4]diazepin-6-yl)acetate]: the contraceptive effect entry in the data set with mice is “complete and reversible contraceptive effect”. In data set [4], the “bioavailable across the blood-testis boundary” value is 100%.

With `CNC(=O)c1ccc(C(=O)Nc2cc(NC(=O)c3ccc4c(c3)c(-c3cc5ccccc5n3C)nn4C)ccc2OC)cc1` [compound 3, N^1-(2-Methoxy-5-(1-methyl-3-(1-methyl-1H-indol-2-yl)-1H-indazole-5-carboxamido)phenyl)-N^4-methylterephthalamide], the half-life at 2 μM in data set [3] was 31 min; in data set [2] (setting [6]), 87 min. For the same compound, the half-maximal inhibitory concentration (IC50) on BRDT-BD2 [1] was 22 nM; on BRDT-BD1 it was over 10000 nM. Besides, the “Count” value at His-BRDT-BD2 came out at 1039.

Take `CNC(=O)c1ccc(C(=O)Nc2cc(NC(=O)c3ccc4c(c3)c(-c3ccccc3C)nn4C)ccc2OC)cc1` [compound 6, N^1-(2-Methoxy-5-(1-methyl-3-(o-tolyl)-1H-indazole-5-carboxamido)phenyl)-N^4-methylterephthalamide]: the half-life at 2 μM in [3] stood at 40 min; in data set [2] (setting [7]), 17 min. The concentration for half-maximal inhibition (IC50) at BRDT-BD2 [1] is 61 nM; on BRDT-BD1 it was 6300 nM. Further, the “Count” value at His-BRDT-BD2 was determined as 0.

Turning to `CC(=O)Nc1cc(NC(=O)c2ccc3c(c2)c(-c2ccc(N)cc2C)nn3C)ccc1C` [compound 20, N-(3-Acetamido-4-methylphenyl)-3-(4-amino-2-methylphenyl)-1-methyl-1H-indazole-5-carboxamide], at BRDT-BD2 [5], the “potency at binding BRDT-BD2 relative to (+)-JQ1” value is recorded as “more than 20 fold”. Further, in the data set with bromodomains, the “binding selectivity across bromodomains” value is “potent and selective binding to only the second bromodomains within the BET subfamily”. Further, the figures for the half-maximal inhibitory concentration (IC50) on BRDT-BD2 [1] and on BRDT-BD1 were 8 nM and over 10000 nM, respectively.

As for `CNC(=O)c1ccc(C(=O)Nc2cc(NC(=O)c3ccc4c(c3)c(-c3ccc(C)cc3C)nn4C)ccc2OC)cc1` [compound 5, N^1-(5-(3-(2,4-Dimethylphenyl)-1-methyl-1H-indazole-5-carboxamido)-2-methoxyphenyl)-N^4-methylterephthalamide], the half-life at 2 μM stood at 20 min in [3] and 18 min in data set [2] (setting [7]). For the same compound, the values for the IC50 on BRDT-BD2 [1] and on BRDT-BD1 were 26 nM and over 10000 nM, respectively. Moreover, the “Count” value on His-BRDT-BD2 is 515.

As for `CNC(=O)c1ccc(C(=O)Nc2cc(NC(=O)c3ccc4c(c3)c(-c3ccc(N)cc3C)nn4C)ccc2OC)cc1` [compound 4, N^1-(5-(3-(4-Amino-2-methylphenyl)-1-methyl-1H-indazole-5-carboxamido)-2-methoxyphenyl)-N^4-methylterephthalamide], the half-life at 2 μM in data set [3] is 14 min; in data set [2] (setting [6]), 100 min. Moreover, the IC50 was 12 nM at BRDT-BD2 [1] and over 10000 nM at BRDT-BD1. The “Count” value on His-BRDT-BD2 is reported as 838.
